Here are results for one compound from ChEMBL document CHEMBL4385605, “Synthesis and Structure-Affinity Relationships of Spirocyclic Benzopyrans with Exocyclic Amino Moiety” (J Med Chem, 2019).

One may read the Ki as a measure of affinity in units of concentration, obtained from inhibition or displacement.

Series [1] can be described thus: Metabolic stability in human liver microsomes assessed as parent compound remaining at 1 uM in the presence of NADPH regenerating system after 60 mins by UPLC/MS analysis. In kind it is ADME, Microsome. To be noted: read-out: Stability.
The next series deals with HepG2. Kind of series: Cytotoxicity against human HepG2 cells at 1 to 100 uM incubated for 20 hrs under serum free condition by neutral red uptake assay. It is filed as cell-based. As to conditions: hepg2, 20 h.
Series [2] has as its target Sodium-dependent serotonin transporter (Homo sapiens) (UniProt P31645). Description: Binding affinity to serotonin transporter (unknown origin) at 1 uM.
In a further series the target is Cytochrome P450 3A4 (Homo sapiens, UniProt P08684). Description: Inhibition of recombinant human CYP3A4 at 1 uM by fluorescence assay. In kind it is ADME. As to conditions: recombinant enzyme.
Chain of Cytochrome P450 3A4 (P08684 whole entry): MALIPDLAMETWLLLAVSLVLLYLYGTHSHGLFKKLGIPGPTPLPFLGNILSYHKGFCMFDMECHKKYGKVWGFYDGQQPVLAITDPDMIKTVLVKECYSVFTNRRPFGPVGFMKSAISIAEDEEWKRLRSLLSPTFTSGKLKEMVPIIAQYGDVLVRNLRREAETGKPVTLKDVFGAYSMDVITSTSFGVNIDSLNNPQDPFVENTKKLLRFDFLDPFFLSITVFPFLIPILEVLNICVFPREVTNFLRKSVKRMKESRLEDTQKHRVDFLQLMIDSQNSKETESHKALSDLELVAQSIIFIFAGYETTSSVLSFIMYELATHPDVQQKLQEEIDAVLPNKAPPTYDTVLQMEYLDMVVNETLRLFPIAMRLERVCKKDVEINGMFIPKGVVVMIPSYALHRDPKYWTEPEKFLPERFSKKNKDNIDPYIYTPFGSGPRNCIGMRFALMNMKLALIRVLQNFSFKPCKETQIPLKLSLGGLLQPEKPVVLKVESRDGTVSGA
Series [3] addresses Sigma intracellular receptor 2 (Homo sapiens, UniProt Q5BJF2). Description: Displacement of [3H]-di-o-tolylguanidine from sigma2 receptor in human RT4 cell membranes incubated for 120 mins in the presence of sigma1 receptor ligand (+)-pentazocine by scintillation counting method. A general note: Loss of bound radioactivity is the signal in a displacement assay; it reports binding, not function.

Series [4] in a line: Selectivity ratio of Ki for displacement of [3H]DTG from sigma2 receptor in rat liver membranes to Ki for displacement of (+)-[3H]pentazocine from sigma 1 receptor in guinea pig brain cortex membranes. It is filed as cell membranes.
Series [5] concerns the target Sodium-dependent dopamine transporter (Homo sapiens) (UniProt Q01959). Description: Binding affinity to dopamine transporter (unknown origin) at 1 uM.
In series [6] the target is T1, Alpha-1A adrenergic receptor (Homo sapiens) (UniProt P35348).
T1 sequence (whole entry): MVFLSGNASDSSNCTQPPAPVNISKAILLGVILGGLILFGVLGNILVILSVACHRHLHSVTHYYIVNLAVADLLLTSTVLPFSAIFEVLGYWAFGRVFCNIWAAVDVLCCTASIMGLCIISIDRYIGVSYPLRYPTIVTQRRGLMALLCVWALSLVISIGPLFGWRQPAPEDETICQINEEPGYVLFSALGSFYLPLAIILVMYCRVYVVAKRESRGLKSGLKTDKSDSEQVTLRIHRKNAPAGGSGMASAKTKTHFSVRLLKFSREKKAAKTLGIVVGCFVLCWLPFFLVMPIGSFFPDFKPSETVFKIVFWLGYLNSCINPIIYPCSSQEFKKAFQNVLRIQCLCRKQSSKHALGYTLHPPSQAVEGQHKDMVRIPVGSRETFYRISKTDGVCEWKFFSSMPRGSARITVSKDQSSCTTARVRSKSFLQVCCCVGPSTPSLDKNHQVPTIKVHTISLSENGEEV
Description: Binding affinity to alpha 1a adrenergic receptor (unknown origin) at 1 uM relative to control.

Molecules are shown by their SMILES. Active and inactive are the calls of the source. The rule behind the calls is not given here.

Chain of Sodium-dependent serotonin transporter (Homo sapiens) (P31645 whole entry, looked up): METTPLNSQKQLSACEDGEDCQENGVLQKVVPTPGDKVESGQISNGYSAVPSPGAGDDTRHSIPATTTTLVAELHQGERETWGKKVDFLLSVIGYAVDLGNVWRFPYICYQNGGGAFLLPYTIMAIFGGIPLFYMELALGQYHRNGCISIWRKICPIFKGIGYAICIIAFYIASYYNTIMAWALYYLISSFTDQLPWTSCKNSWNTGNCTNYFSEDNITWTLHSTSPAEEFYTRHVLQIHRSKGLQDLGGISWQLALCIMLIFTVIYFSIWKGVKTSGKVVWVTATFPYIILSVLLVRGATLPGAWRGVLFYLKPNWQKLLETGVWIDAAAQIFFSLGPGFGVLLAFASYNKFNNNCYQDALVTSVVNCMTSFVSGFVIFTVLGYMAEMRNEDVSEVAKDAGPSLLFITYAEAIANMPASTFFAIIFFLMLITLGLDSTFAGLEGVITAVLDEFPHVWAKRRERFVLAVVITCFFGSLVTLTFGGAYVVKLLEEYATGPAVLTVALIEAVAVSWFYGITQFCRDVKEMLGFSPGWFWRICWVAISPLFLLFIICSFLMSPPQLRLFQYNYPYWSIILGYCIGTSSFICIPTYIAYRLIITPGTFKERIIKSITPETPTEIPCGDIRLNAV
Chain of Sodium-dependent dopamine transporter (Homo sapiens) (Q01959 whole entry): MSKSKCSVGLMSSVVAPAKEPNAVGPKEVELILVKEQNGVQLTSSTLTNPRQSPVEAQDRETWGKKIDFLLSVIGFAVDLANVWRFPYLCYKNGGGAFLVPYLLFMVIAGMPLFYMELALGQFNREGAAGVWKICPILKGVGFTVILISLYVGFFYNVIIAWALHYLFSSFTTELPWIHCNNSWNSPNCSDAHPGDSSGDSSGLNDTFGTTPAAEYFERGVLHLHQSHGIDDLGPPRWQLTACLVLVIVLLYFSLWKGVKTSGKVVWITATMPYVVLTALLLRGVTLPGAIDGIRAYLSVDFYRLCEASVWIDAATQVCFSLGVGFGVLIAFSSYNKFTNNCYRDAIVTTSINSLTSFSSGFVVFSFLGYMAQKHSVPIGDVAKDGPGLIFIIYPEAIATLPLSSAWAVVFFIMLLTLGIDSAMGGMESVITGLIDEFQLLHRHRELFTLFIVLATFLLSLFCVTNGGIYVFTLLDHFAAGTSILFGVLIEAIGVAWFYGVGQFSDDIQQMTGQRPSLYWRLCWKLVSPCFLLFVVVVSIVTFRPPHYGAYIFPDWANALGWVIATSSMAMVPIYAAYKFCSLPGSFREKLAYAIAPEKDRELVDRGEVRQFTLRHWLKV
Chain of Sigma intracellular receptor 2 (Q5BJF2 whole entry): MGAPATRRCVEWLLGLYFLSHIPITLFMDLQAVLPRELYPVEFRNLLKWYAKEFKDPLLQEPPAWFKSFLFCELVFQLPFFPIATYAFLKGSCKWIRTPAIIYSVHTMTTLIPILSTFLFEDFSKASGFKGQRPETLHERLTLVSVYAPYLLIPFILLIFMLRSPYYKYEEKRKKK

Turning to `COC1Cc2ccccc2[C@]2(CC[C@H](N(C)CC3CCCCC3)CC2)O1` (stereo partly drawn), in series [1], the remaining at 1 h, 1 µM was greater than 50%. Also, the Activity entry in the series with HepG2 is “Non-Toxic”; in series [6] it was 68%. Besides, the result in series [2] and in series [5] was inactive. Further, at Cytochrome P450 3A4, the “inhibition (INH)” value is reported as “Not Active”. In series [3], the inhibition constant Ki worked out at 0.013 µM. Besides, the Ratio Ki in series [4] is 5 to 10.
